This is an account of results in patent publication EP1785721A1, “Microbial, viral and mammalian susceptibility to agents that affect cell growth and metabolism, and mode of action of compounds” (Stratos Bio Ltd., priority 2005, dated 2007).

Read-outs that look alike come from different tables or passages of the source. Where only a bound is given, the exact number is not on record here.

One experiment concerns B. pumilus. Kind of experiment: MIC determination, two-fold serial dilutions assayed for turbidity. It is filed as cell-based, Bacillus pumilus. Here is the method: (§1) MIC and MBC's were determined as follows: • Two-fold serial dilutions of antibiotic in their respective media were incubated for 16-24h (depending on the bacterial strain) and assayed for turbidity. A tube with a turbid suspension was not inhibited and a clear suspension with the lowest concentration of antibiotic showing no growth was designated MIC. MBC's were checked as follows: 0.01ml of each suspension from tubes showing no growth were added to agar plates and incubated for 48H; the lowest concentration of antibiotic from which no colonies formed was designated MBC.

Experiment [1] has as its system Bordetella bronchiseptica. Put plainly: MIC and MBC determination, two-fold serial dilutions assayed for turbidity. It is filed as cell-based. Here is the method:
as §1

The test system of experiment [2] is Micrococcus flavus. The experiment is described as above. It is filed as cell-based. Here is the method: as §1
The next experiment concerns E.coli. Described as above. The experiment is classed as cell-based. The protocol:
MIC and MBC's were determined as follows: • Two-fold serial dilutions of antibiotic in their respective media were incubated for 16-24h (depending on the bacterial strain) and assayed for turbidity.
A tube with a turbid suspension was not inhibited and a clear suspension with the lowest concentration of antibiotic showing no growth was designated MIC. MBC's were checked as follows: 0.01ml of each suspension from tubes showing no growth were added to agar plates and incubated for 48H; the lowest concentration of antibiotic from which no colonies formed was designated MBC.
To assay the nitrofurans at a concentration where the maximum sensitivity to E.coli could be achieved MIC's were determined for each compound. […] The respiratory medium was the one described previously at pH7. […] None of the nitrofurans were water soluble so prior to either MIC determination or incubation an accurately weighed sample of each compound was dissolved in 0.4ml DMSO and then 1.6ml H2O was added. When this solution was added to either tubes containing nutrient broth or to the fermentation vessels emulsions resulted. Good stirring minimised the problem in the calorimeter. No compensation was made for DMSO when diluting the samples as high concentrations of DMSO could falsify the results. […] Two types of responses were observed. […] No dependence of MIC on either RMM or power could be observed.

A further experiment relates to Bacillus pumilus. Kind of experiment: Flow microcalorimetry (p-t curves) of growing culture. The experiment is classed as cell-based. An excerpt:
(§2) • a) For B. pumilus a simple glucose/salts medium was employed with a glucose concentration of 0.1 % w/v. • b) For Bord. bronch. The above salts medium was used with the addition of nicotinic acid, methionine and glutamic acid. Glutamic acid was used at a concentration of 0.2% w/v. • c) For M. flavus a semidefined medium was employed, using the same salts as a B. pumilus but also Na-citrate, biotin and protease peptone. In the calorimeter a concentration of 0.4% protease peptone was used. All medium constituents (except protease) were analytical reagents. The calorimetric medium was therefore a final concentration of 100ml of either solution a, b or c freshly autoclaved for 15 mins exactly at 121°C, 151b/sq inch. Glucose was added to the appropriate solution after autoclaving.
(§3) To the vertical face of the vessel close to its base, equidistantly spaced around the circumference, ports were fitted for an oxygen electrode and for sampling/inoculation. The fermenter was closed with a flat flanged glass lid which had five ports accommodating respectively, gas inlet tube, gas exhaust (via air condenser), inlet and outlet flow-lines to and from the calorimeter. The fermenter and lid was sealed with a p.t.f.e. gasket and clamped with a metal clip. The fermenter was placed on a magnetic stirring unit in a water jacket which allowed circulation of the thermostatically controlled water at 30°C or 37°C. The fermenter which contained a Teflon coated magnetic stirring bar, was sterilised by autoclaving.
(§4) For a typical calorimetric incubation the medium was passed through the calorimetric vessel at the same flow rate and temperature as those used in the experiment to establish a steady baseline deflection. The following operations then took place to a strict timetable. The liquid nitrogen stored ampoule was thawed at 38°C for 3 min and then stirred for 20 sec on a whirlimixer. The bacterial suspension (0.5-1.5ml) volumes was inoculated into the medium (100ml) two minutes after completion of thawing. A Gilson automatic pipette was used for inoculation. The calorimeter inlet flow-line was placed in the incubation medium 30 seconds after inoculation. The flowing incubation medium reached the calorimetric vessel two min after inlet flow-line insertion. At this time the recording of the p-t curves was started. Eight min after inoculation the outflow from the calorimeter was returned to the fermenter (after the "baseline" medium had run to waste but before the inoculated medium ran to waste) thus making a closed system. Aeration was started as soon as the inlet tube was inserted in the fermenter. Microbiological purity of the culture was checked by plating out a sample of the culture at the end of each incubation on nutrient agar (lab M).
(§5) The output of calorimetric experiments is a plot of power (energy evolution per unit of time) as a function of time. The unit of power (p) is the Watt (W) and the unit of time is the hour (h). In some experiments seconds (s) were used as time unit.
P-t curves of B. pumilus at 30µV full scale deflection (471.15µW) show a logarithmic increase in power. […] After 10h growth the power output was: 17% for 0.05% glucose, 22% for 0.2% glucose and 18% for 0.1% glucose. It was decided to use 0.1% glucose for microcalorimetrically monitored growth experiments, because use of 0.2% glucose could result in the bacterium clumping in the calorimetric chamber or in the Teflon tubes leading to and from the calorimeter. In 0.05% glucose B. pumilus grew slightly slower and to a smaller percentage total deflection than in the 0.1 % glucose incubations. The p-t curve of 0.1 % glucose on 10µV (157.05µW full scale deflection) was obtained.

In experiment [3] the test system is Micrococcus flavus. Described as above. The conditions noted are these: bacterial concentration printed '0?'. It is filed as cell-based.
Excerpt: as §2
To the vertical face of the vessel close to its base, equidistantly spaced around the circumference, ports were fitted for an oxygen electrode and for sampling/inoculation. The fermenter was closed with a flat flanged glass lid which had five ports accommodating respectively, gas inlet tube, gas exhaust (via air condenser), inlet and outlet flow-lines to and from the calorimeter. The fermenter and lid was sealed with a p.t.f.e. gasket and clamped with a metal clip. […]

Experiment [4] relates to Bordetella bronchiseptica. The description is as above. The experiment is classed as cell-based.
Excerpt: as §2, §3, §4, §5
After successful freezing of Bord. bronch p-t curves for growth in different concentrations of glutamic acid from 0.1%-0.5% were obtained. It was concluded that a medium containing 0.2% glutamic acid would be sufficient for a good deflection in the microcalorimeter minimising the possibility of the bacteria clogging in the microcalorimetric cell or in the teflon tubes leading to and from the microcalorimetric cell. A pH of 7 was used in all the following experiments as this is the optimum pH for polymyxin - lipid binding.
It was of vital importance to maintain a constant oxygen tension; this was achieved by using saturation concentrations of oxygen. It was decided to use the height of the small peak as full scale deflection for the antibiotic assay as the increase in power was exponential up to this point and the peak occurred at a convenient time. This choice of assay point was empirical. The inoculum was 1.1 ± 0.06 x 10^8 cfu/ml for all the microclalorimetric incubations. […]

The next experiment concerns respiring E.coli. Kind of experiment: Flow microcalorimetry (p-t curves) of respiring cells in glucose buffer. It is filed as cell-based. The protocol:
The respiration experiments were carried out in glucose buffer at different pH.
The nitrofurans only differed in the length of their side chains (e.g. methyl, propyl etc.).
To assay the nitrofurans at a concentration where the maximum sensitivity to E.coli could be achieved MIC's were determined for each compound. […] The respiratory medium was the one described previously at pH7. […] No compensation was made for DMSO when diluting the samples as high concentrations of DMSO could falsify the results.

A short description of experiment [5]: Animal case study, antibiotic treatment of a scratch to the eye. The note with it: 30 days of treatment, domestic cat with a scratch to the eye. It is filed as in vivo. The protocol: A domestic cat was given a mixture of antibiotics as eye drops in response to a scratch to the eye. […] Previously the cat had never been given milk (as many animals are allergic to cow's milk). The cat was now given full cream milk as part of a regimen to promote weight gain (the cat also continued to eat its usual amount of daily cat food throughout the period of weight loss). Initially weight was gained but within 24 hours weight loss resumed (presumably because the pathogenic bacteria/viruses had found a way of utilising lactose). An autopsy indicated bone-cancer as cause of death. The body wasting caused by the weight loss was very similar to that observed in early AIDS cases. However the cat had been regularly vaccinated against HTLV 1 through its 16 year life (and had never been ill in that period).

For `NC[C@@H]1O[C@H](O[C@H]2[C@@H](O)[C@H](O[C@@H]3[C@@H](O)[C@H](N)C[C@H](N)[C@H]3O[C@H]3O[C@H](CN)[C@@H](O)[C@H](O)[C@H]3N)O[C@@H]2CO)[C@H](N)[C@@H](O)[C@@H]1O.O=S(=O)(O)O` [Neomycin sulphate], the “effect at MIC” value in the experiment with B. pumilus (5.1 x 10^6 cfu/ml) and in the experiment on B. pumilus (inoculum of 1x10^5 cfu/ml) was “bacteriostatic” throughout. The MIC in the experiment on B. pumilus (5.1 x 10^6 cfu/ml, inoculum used in the microcalorimetric incubations) was 2 µg/mL; against B. pumilus (inoculum not given), “MIC NEO 1 ug/ml”; in the experiment with B. pumilus (inoculum of 1x10^5 cfu/ml), 0.1 µg/mL; in experiment [1] it was “MIC NEO 0.25 ug/ml”; with Micrococcus flavus [2], “MIC NEO 4 ug/ml”; in the experiment on E.coli it was 500 µg/mL. In the experiment with E.coli (listed as NEO), the MIC entry is listed as “NEO 5900 ug/ml”. In addition, the MBC entry against E.coli is on record as “NEO 5900 ug/ml”. Further, the power output result with Bacillus pumilus (0.5 and 1 x MIC (1-2 µg/ml) added after an increase of 10% of full scale deflection) was “the same effect was observed”; in the experiment on Bacillus pumilus (0.5 x MIC (1µg/ml) added after a 25% increase power output, 2-4h after addition), “massive power output”; in the experiment with Bacillus pumilus (added after an increase in power output of 15% of full scale deflection), “only marginally larger than that observed for the normal growth curve”; with Bacillus pumilus (higher concentrations of antibiotic (above 1 x MIC), added after 10% of full scale deflection) it was “a decrease in power output was observed”. Also, the heat output entry in the experiment with Bacillus pumilus (concentrations of < 1ug/ml or in combinations with other antibiotics, organism not named at this place) was “increased heat output”; in the experiment on respiring E.coli (respiring E.coli, all concentrations), “increased heat output”. The “Observed effect on p-t curves” value with Micrococcus flavus [3] (4 ug/ml) is listed as “No effect on p-t curve”; in [4] (0.25ug/ml added at 50 % of p-t curve) it was “No effect on p-t curve”; with respiring E.coli (respiration, 500 ug/ml), “Increase in heat output”. Moreover, the “range of linear dose-response” value in the experiment with respiring E.coli (respiration) is 10 to 100 µg/mL. Moreover, the “range of linear relationship between dose and the reciprocal of increase in response from the control curve” value in the experiment on respiring E.coli (respiring E.coli) is 20 to 100 µg/mL. For the same compound, the effect on power entry with respiring E.coli (respiring E.coli, pH 8) is on record as “caused an increase in power”.
`CN[C@H](CC(C)C)C(=O)N[C@H]1C(=O)N[C@@H](CC(N)=O)C(=O)N[C@H]2C(=O)N[C@H]3C(=O)N[C@H](C(=O)N[C@H](C(=O)O)c4cc(O)cc(O)c4-c4cc3ccc4O)[C@H](O)c3ccc(c(Cl)c3)Oc3cc2cc(c3O[C@@H]2O[C@H](CO)[C@@H](O)[C@H](O)[C@H]2O[C@H]2C[C@](C)(N)[C@H](O)[C@H](C)O2)Oc2ccc(cc2Cl)[C@H]1O` [vancomycin]: the “effect of treatment on the eye” value in experiment [5] is recorded as “without any effect to the eye”.
For the compound Polymyxin B sulphate, the MIC entry against B. pumilus (inoculum not given) is “POL 20 ug/ml”; in experiment [1], “Ug/ml MIC & MBC 2 ug/ml”; in [1] (listed as POL), “POL 2ug/ml”; in [1] (listed as polymyxin B sulphate), 2 µg/mL; against Micrococcus flavus [2], “POL 2ug/ml”; against E.coli, 6.3 µg/mL. Moreover, in the experiment on E.coli (listed as POL), the MIC result is on record as “POL 6.3ug/ml”. Besides, the MBC entry was “Ug/ml MIC & MBC 2 ug/ml” in experiment [1], 2 µg/mL in experiment [1] (listed as polymyxin B sulphate), 6.3 µg/mL in the experiment on E.coli and “POL 6.3ug/ml” in the experiment on E.coli (listed as POL). Further, the “Observed effect on p-t curves” value with Bacillus pumilus (20ug/ml, within 9 hours, bacterial concentration printed '0?') was “Within 9 hours growth was inhibited completely”; with Micrococcus flavus [3] (2ug/ml), “Slightly delayed peak”; in [4] (0.07 ug/ml added at 18 % of p-t curve) it was “No effect on growth curve”; in experiment [4] (0.35 -2 ug/ml added at 18 % of p-t curve, 10 min after addition), “Linear log dose response 10 min after addition of antibiotic CV 2.5%”; in the experiment on respiring E.coli (respiration, 6.3 ug/ml), “Reduced height of p-t curve initially and returned to baseline within I hour”. Also, the response entry in experiment [4] (0.033 x MIC (0.07 µg/ml)) is on record as “no response to the antibiotic was observed”. Further, the Comments entry in experiment [4] (0.35 -2 ug/ml added at 18 % of p-t curve) is “All curves return to baseline confirmed bacteriocidal action”; in the experiment with respiring E.coli (respiration, 6.3 ug/ml), “Bacteriocidal action demonstrated”. For the same compound, the p-t curve result in experiment [4] (0.5 x MIC, within 10 min of addition) is on record as “sharp decline in heat output”. Moreover, in experiment [4] (at MIC values), the mode of action result was “bactericidal”. Besides, in [4] (concentration larger than 3.5 x MIC), the “decline of the p-t curve” value is recorded as “the declines were identical”. Further, the “reversibility of the effect” value in experiment [4] (most concentrations of antibiotic, decline in power decreased to a baseline value) is “irreversible”. In [4] (usually), the “time to observable response after addition of the antibiotic” value was no more than 5 min. Further, the “sensitivity of the assay” value in the experiment with respiring E.coli (respiring E.coli) is 3 µg/mL. Besides, the “effect on p-t curve” value in the experiment with respiring E.coli (respiring E.coli, pH 7) is “reduced the initial peak height and thereafter the p-t curve returned to baseline”.
